Assay results taken from US7425631B2 (Amgen Inc., priority 2003, dated 2008).

Each molecule was assayed against T1, human bradykinin B1 receptor (Homo sapiens, UniProt P46663) (assay: Radioligand binding assay for human B1 bradykinin receptor ([3H]des-arg10 kallidin)). Conditions: membranes of CHO cells expressing human B1 receptor; read-out: binding Ki's to the hB1 receptor.
T1 construct: expressed in transfected cells; host or cells: CHO-d-AQN cells (membranes prepared in-house)
T1 sequence (P46663 1-353): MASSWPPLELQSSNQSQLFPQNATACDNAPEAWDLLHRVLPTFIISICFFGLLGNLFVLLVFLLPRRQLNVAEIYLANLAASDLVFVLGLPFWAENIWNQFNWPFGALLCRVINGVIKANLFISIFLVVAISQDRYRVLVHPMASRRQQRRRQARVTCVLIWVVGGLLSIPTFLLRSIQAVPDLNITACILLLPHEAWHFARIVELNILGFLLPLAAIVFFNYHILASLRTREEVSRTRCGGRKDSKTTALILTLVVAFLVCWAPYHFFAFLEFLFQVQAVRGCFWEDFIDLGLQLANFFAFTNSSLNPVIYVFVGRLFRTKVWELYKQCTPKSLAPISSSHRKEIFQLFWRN
Protocol: Preparation of membranes expressing human B1 and human B2 bradykinin receptor. Membranes were prepared from CHO-d^−AQN cells stably transfected with human bradykinin B1 receptor cDNA. For large-scale production of membranes, cells were grown in 100 L suspension culture to 1.0E8 cells/mL then harvested using the Viafuge at continuous centrifugation of 1000 g. For pilot studies, cells were grown in 2 L spinner culture and harvested by centrifugation (1900 g, 10 min, 4° C.). […] The resulting cell lysate was centrifuged (1900 g, 10 min, 4° C.), and the crude particulate fraction isolated by centrifugation (142,000 g, 1 h, 4° C.) of the low-speed supernatant. The resulting pellet was resuspended in ⅓ the original lysis buffer volume, homogenized, and recentrifuged as above. The membrane pellet was resuspended by homogenization in storage buffer (25 mM HEPES, pH 7.4, 3 mM MgCl2, 10% (w/v) sucrose and Complete Protease Inhibitor tablets (EDTA-free)). Single-use aliquots were made and flash-frozen in liquid N2 prior to storage at −80° C.
Radioligand Binding Assay for human B1 and human B2 bradykinin receptor. […] Membranes (50 μL) were added last. […] Nonspecific binding was defined with 2 μM des-Arg^10Leu^9 kallidin. […] The assay mixture was incubated with shaking for 1 hr at RT and then filtered through GF/C plates presoaked in 0.5% polyethyleneimine (Unifilter; Perkin Elmer Life Sciences) using a Filtermate 96-well harvester (Perkin Elmer Life Sciences). […] The plates were sealed and activity read on Topcount (Perkin Elmer Life Sciences) using a count time of 3 min per channel.
Data analysis. Data was analyzed in XLFit with the four-parameter logistic y=A+((B-A)/(1+((C/x)^D))) and fit with the Levenburg-Marquardt algorithm. Raw cpm were converted to percent of control values prior to analysis (POC=((compound cpm−nonspecfic cpm)/(no-compound cpm−nonspecific cpm)*100)). Ki values were determined from the IC50 using the Cheng-Prusoff equation and Kd values determined by direct saturation binding of the radioligands.
`CN1CCN(Cc2ccc3c(c2)OCCC3NC(=O)C[C@@H](NS(=O)(=O)c2ccc3ccccc3c2)c2ccccc2)CC1` (some centres unmarked) [Example 1a, N-[7-(4-Methyl-piperazin-1-ylmethyl)-chroman-4-yl]-3-(naphthyl-2-ylsulfonylamino)-3-phenyl-propionamide] gave a Ki of under 100 nM. `CC(C)NCc1ccc2c(c1)OCCC2NC(=O)C[C@@H](NS(=O)(=O)c1ccc2ccccc2c1)c1ccccc1` (some centres unmarked) [Example 3, N-[7-(Isopropylamino-methyl)-chroman-4-yl]-3-(naphthalen-2-ylsulfonylamino)-3-phenyl-propionamide] was tested, and the Ki was under 100 nM. Molecule `CCN(Cc1ccc2c(c1)OCCC2NC(=O)C[C@@H](NS(=O)(=O)c1ccc2ccccc2c1)c1ccccc1)C(C)(C)C` (some centres unmarked) [Example 3f, N-{7-[(tert-Butyl-ethyl-amino)-methyl]-chroman-4-yl}-3-(naphthalen-2-yl-sulfonylamino)-3-phenyl-propionamide] has a Ki of under 100 nM. Molecule `CCN(CC)Cc1ccc2c(c1)OCCC2NC(=O)C[C@@H](NS(=O)(=O)c1ccc2ccccc2c1)c1ccccc1` (some centres unmarked) [Example 3l, N-(7-Diethylaminomethyl-chroman-4-yl)-3-(naphthalen-2-yl-sulfonylamino)-3-phenyl-propionamide] has a Ki of under 100 nM. With `O=C(C[C@@H](NS(=O)(=O)c1ccc2ccccc2c1)c1ccccc1)NC1CCc2cc(CN3CCCCC3)ccc21` (some centres unmarked) [Example 5a, 3-(Naphthalen-2-yl-sulfonylamino)-3-phenyl-N-(5-piperidin-1-ylmethyl-indan-1-yl)-propionamide] the Ki was under 100 nM. Work on `C[C@@H]1CC[C@@H](C)N1Cc1ccc2c(c1)OCCC2NC(=O)C[C@@H](NS(=O)(=O)c1ccc2ccccc2c1)c1ccccc1` (stereo partly drawn) [Example 3h, N-[7-(2R, 5R-Dimethyl-pyrrolidin-1-ylmethyl)-chroman-4-yl]-3-(naphthalen-2-yl-sulfonylamino)-3-phenyl-propionamide] yielded a Ki of under 100 nM. `O=C(C[C@@H](NS(=O)(=O)c1ccc2ccccc2c1)c1ccccc1)NC1CCc2c(CN3CCCCC3)cccc21` (some centres unmarked) [Example 4a, 3-(Naphthalen-2-yl-sulfonylamino)-3-phenyl-N-(4-piperidin-1-ylmethyl-indan-1-yl)-propionamide] gave a Ki of under 100 nM. Work on `O=C(C[C@@H](NS(=O)(=O)c1ccc2ccccc2c1)c1ccccc1)NC1CCOc2cc(CN3CCOCC3)ccc21` (stereo in doubt) [Example 3j, N-(7-Morpholin-4-ylmethyl-chroman-4-yl)-3-(naphthalen-2-yl-sulfonylamino)-3-phenyl-propionamide] yielded a Ki of under 100 nM. For `CN1c2cc(CN3CCCCC3)ccc2C(NC(=O)C[C@@H](NS(=O)(=O)c2ccc3ccccc3c2)c2ccccc2)CS1(=O)=O` (stereo in doubt) [Example 13, 3-(Naphthalen-2-yl-sulfonylamino)-N-(1-methyl-2,2-dioxo-7-piperidin-1-ylmethyl-1,2,3,4-tetrahydro-2λ^6-benzo[c][1,2]thiazin-4-yl)-3-phenyl-propionamide], the Ki was under 100 nM. With `O=C(C[C@@H](NS(=O)(=O)c1cc(Cl)cc(Cl)c1)c1ccccc1)NC1CCOc2cc(CN3CCCCC3)ccc21` (stereo in doubt) [Example 1h, 3-(3,5-Dichloro-benzenesulfonylamino)-3-phenyl-N-(7-piperidin-1-ylmethyl-chroman-4-yl)-propionamide] the Ki was under 100 nM. Work on `CC(C)N(C)Cc1ccc2c(c1)OCCC2NC(=O)C[C@@H](NS(=O)(=O)c1ccc2ccccc2c1)c1ccccc1` (some centres unmarked) [Example 3b] yielded a Ki of under 100 nM. Molecule `O=C(C[C@@H](NS(=O)(=O)c1ccc(Cl)c(Cl)c1)c1ccccc1)NC1CCOc2cc(CN3CCCCC3)ccc21` (some centres unmarked) [Example 1f, 3-(3,4-Dichloro-benzenesulfonylamino)-3-phenyl-N-(7-piperidin-1-ylmethyl-chroman-4-yl)-propionamide] has a Ki of under 100 nM. In the case of `O=C(C[C@@H](NS(=O)(=O)c1ccc2ccccc2c1)c1ccccc1)NC1CCOc2cc(CN3CCCC3)ccc21` (some centres unmarked) [Example 1d, 3-(Naphthalen-2-ylsulfonylamino)-3-phenyl-N-(7-pyrrolidin-1-ylmethyl-chroman-4-yl)-propionamide], the Ki is reported as under 100 nM.

Each molecule was assayed against T2, human B1 receptor (Homo sapiens, UniProt P46663) (assay: In vitro assay of human B1 receptor function using calcium flux (aequorin luminescence)). Conditions: CHO D-/hB1/Aequorin cells, agonist 20 nM des-Arg10-Kallidin (EC80); read-out: binding IC50's to hB1 receptor function.
T2 construct: expressed in transfected cells
T2 sequence (P46663 1-353): T1 sequence (P46663 1-353)
Format: cell-based
Protocol: Activation of the Gq linked B1 receptor results in an increase in intracellular calcium. […] Aequorin is a 21-kDa photoprotein that forms a bioluminescent complex when linked to the chromophore cofactor coelenterazine.
Following coelenterazine incubation, an automated flash-luminometer platform was used to dispense the B1 antagonist compounds (dissolved in DMSO and diluted with buffer to the desired concentration (final DMSO concentration <1% DMSO)) to the cell plate, a CCD camera situated underneath the cell plate took 12 images of the cell plate at 5 second intervals to determine if there was any agonist activity with the compounds. The hB1 agonist, des-Arg10-Kallidin, was added to the cell plate and another 12 images were recorded to determine the IC50 of the antagonist(s).
Work on `O=C(C[C@@H](NS(=O)(=O)c1ccc2ccccc2c1)c1ccccc1)NC1CCc2cc(CN3CCCCC3)ccc21` (some centres unmarked) [Example 5a, 3-(Naphthalen-2-yl-sulfonylamino)-3-phenyl-N-(5-piperidin-1-ylmethyl-indan-1-yl)-propionamide] yielded an IC50 of under 10 nM. Work on `O=C(C[C@@H](NS(=O)(=O)c1ccc(Cl)c(Cl)c1)c1ccccc1)NC1CCOc2cc(CN3CCCCC3)ccc21` (some centres unmarked) [Example 1f, 3-(3,4-Dichloro-benzenesulfonylamino)-3-phenyl-N-(7-piperidin-1-ylmethyl-chroman-4-yl)-propionamide] yielded an IC50 of under 10 nM. For `CC(C)(C)NCc1ccc2c(c1)OCC[C@H]2NC(=O)C[C@@H](NS(=O)(=O)c1cc(C(F)(F)F)ccc1Cl)c1ccc(F)cc1` [ej, N-[7-(tert-Butylamino-methyl)-chroman-4-yl]-3-(2-chloro-5-trifluoromethyl-benzenesulfonylamino)-3-(4-fluoro-phenyl)-propionamide], the IC50 was under 10 nM. Molecule `CC(C)(C)NCc1ccc2c(c1)CCC[C@H]2NC(=O)C[C@H](NS(=O)(=O)c1cccc(C(F)(F)F)c1)c1ccc(F)cc1` [a, (3S)-N-((1R)-6-(((1,1-dimethylethyl)amino)-methyl)-1,2,3,4-tetrahydro-1-naphthalenyl)-3-(4-fluorophenyl)-3-(((3-(trifluoromethyl)phenyl)-sulfonyl)amino)propanamide] has an IC50 of under 10 nM.
